Where two headings read alike, the source gives them in different places.
Assays:
[1] = target: mushroom tyrosinase (Agaricus bisporus, UniProt C7FF04); experiment: Mushroom tyrosinase inhibitory activity assay (L-dopa or L-tyrosine as substrate); type: biochemical; settings: 50 μM, read-out: Inhibition (%, Mean ± SEM) at 50 μM (converted)
Protocol: In the inhibition experiments, L-dopa and L-tyrosine were used as enzyme substrates.
The plate was incubated at 37 °C for 30 min, and absorbance of dopachrome formation was recorded spectrophotometrically at 475 nm using a VersaMax® Elisa (VE) microplate reader (Molecular Devices, San Jose, CA, USA) to determine tyrosinase inhibition activity. A VE microplate reader was used in all subsequent experiments to measure optical density. All experiments were carried out independently three times.

[2] = ABTS radical scavenging assay; settings: 100 μM
Protocol: The ABTS^+ radical solution was obtained by mixing ABTS and potassium persulfate, an oxidizing reagent, and test samples (1–13 and Trolox [positive control]; final concentration: 100 μM) were added to determine their ABTS^+ radical scavenging ability by measuring the optical density at 732 nm.
To prepare ABTS^•+ stock solution, equal amounts of ABTS (14 mM aqueous solution) and K2S2O8 (4.9 mM aqueous solution) were mixed and stored in the dark at 18 °C for 15 h. The prepared ABTS^•+ solution was diluted in ethanol to adjust the absorbance to 0.7 ± 0.01 at 732 nm. The test samples (Trolox [positive control] and compounds 1–13) were dissolved in a cosolvent of ethanol and DMSO (10:1 [v/v]). The adjusted ABTS^•+ solution (90 μL) and test sample (10 μL) were added to each well of a 96-well plate, and the plate was stored in a dark place at 18 °C for 2 min. The optical density was measured at 732 nm every min for 10 min. The test sample solutions were tested at a final concentration of 100 μM. The percentage of radical scavenging activity was calculated as follows: % Radical scavenging activity = 100 × [(Absc − Abst)/Absc], where Abst and Absc are optical densities of the test sample and control, respectively.

[3] = DPPH radical scavenging assay; settings: 500 μM; 30 min in the dark
Protocol: DPPH radical scavenging activity was determined by mixing the DPPH solution with compounds 1–13, leaving it in the dark at 20 °C for 30 min, and measuring the optical density at 517 nm. Ascorbic acid (AA) was used as a positive control to compare the scavenging activity. All test samples were used at 500 μM.
An aliquot (20 μL) of test sample (compounds 1–13 and ascorbic acid [positive control]; 5 mM) in DMSO and 180 μL DPPH solution (0.2 mM) in methanol were mixed in each well of a 96-well plate. The mixed solution was kept in the dark at 18 °C for 30 min. A VE microplate reader was used to measure the optical density of each well at 517 nm.

Chain of mushroom tyrosinase (C7FF04 2-392): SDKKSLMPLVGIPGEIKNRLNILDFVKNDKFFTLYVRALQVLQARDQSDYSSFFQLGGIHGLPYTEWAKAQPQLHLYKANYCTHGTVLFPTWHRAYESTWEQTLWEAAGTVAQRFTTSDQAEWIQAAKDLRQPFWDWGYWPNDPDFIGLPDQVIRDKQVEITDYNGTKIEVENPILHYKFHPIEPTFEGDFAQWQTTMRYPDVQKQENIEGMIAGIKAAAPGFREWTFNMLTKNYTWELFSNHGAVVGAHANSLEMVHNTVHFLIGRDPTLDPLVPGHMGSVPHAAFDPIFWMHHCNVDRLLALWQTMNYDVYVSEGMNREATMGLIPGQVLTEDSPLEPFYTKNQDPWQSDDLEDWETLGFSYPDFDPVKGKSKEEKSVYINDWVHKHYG

| SMILES | inhibition at 50 µM ([1]; substrate L-dopa) [%] | inhibition at 50 µM ([1]; substrate L-tyrosine) [%] | ABTS^+ radical scavenging activity (inhibition rate) [2] [%] | DPPH radical scavenging (inhibition) [3] [%] |
| --- | --- | --- | --- | --- |
| COc1ccc(-c2nc3cc4c(cc3s2)OCO4)cc1 [Compound 3, 6-(4-Methoxyphenyl)-[1,3]dioxolo[4′,5′:4,5]benzo[1,2-d]thiazole] | 17.2 | 11.1 | – | – |
| COc1cc(-c2nc3cc4c(cc3s2)OCO4)cc(OC)c1O [Compound 10, 4-([1,3]Dioxolo[4′,5′:4,5]benzo[1,2-d]thiazol-6-yl)-2,6-dimethoxyphenol] | 53.2 | 0.54 | 96 | – |
| Cc1c(C)c2c(c(C)c1O)CCC(C)(C(=O)O)O2 (stereo not drawn) [Trolox, reference compound] | – | – | 99 | – |
| COc1cc(-c2nc3cc4c(cc3s2)OCO4)cc(OC)c1OC [Compound 13, 6-(3,4,5-Trimethoxyphenyl)-[1,3]dioxolo[4′,5′:4,5]benzo[1,2-d]thiazole] | 5 | 16.6 | – | – |
| O=C1O[C@H]([C@@H](O)CO)C(O)=C1O [AA, Ascorbic acid, reference compound] | – | – | – | 96 |
| COc1ccc(-c2nc3cc4c(cc3s2)OCO4)c(OC)c1 [Compound 12, 6-(2,4-Dimethoxyphenyl)-[1,3]dioxolo[4′,5′:4,5]benzo[1,2-d]thiazole] | 32.8 | 10.6 | – | – |
| Oc1c(Br)cc(-c2nc3cc4c(cc3s2)OCO4)cc1Br [Compound 7, 4-([1,3]Dioxolo[4′,5′:4,5]benzo[1,2-d]thiazol-6-yl)-2,6-dibromophenol] | 29.7 | 17.7 | – | – |

The next lines start with results.

| inhibition at 50 µM ([1]; substrate L-dopa) [%] | inhibition at 50 µM ([1]; substrate L-tyrosine) [%] | SMILES | ABTS^+ radical scavenging activity (inhibition rate) [2] [%] | DPPH radical scavenging (inhibition) [3] [%] |
| --- | --- | --- | --- | --- |
| 18.6 | 4.95 | Oc1ccc(-c2nc3cc4c(cc3s2)OCO4)cc1O [Compound 8, 4-([1,3]Dioxolo[4′,5′:4,5]benzo[1,2-d]thiazol-6-yl)benzene-1,2-diol] | 99 | 82 |
| 63 | 25.5 | COc1ccc(-c2nc3cc4c(cc3s2)OCO4)cc1O [Compound 4, 5-([1,3]Dioxolo[4′,5′:4,5]benzo[1,2-d]thiazol-6-yl)-2-methoxyphenol] | > 77 | – |
| 50.3 | 14.9 | CCOc1cc(-c2nc3cc4c(cc3s2)OCO4)ccc1O [Compound 2, 4-([1,3]Dioxolo[4′,5′:4,5]benzo[1,2-d]thiazol-6-yl)-2-ethoxyphenol] | > 77 | – |
| 27.9 | 17 | Oc1ccc(-c2nc3cc4c(cc3s2)OCO4)cc1Br [Compound 6, 4-([1,3]Dioxolo[4′,5′:4,5]benzo[1,2-d]thiazol-6-yl)-2-bromophenol] | – | – |
| 1.7 | 25.9 | COc1cc(-c2nc3cc4c(cc3s2)OCO4)ccc1O [Compound 1, 4-([1,3]Dioxolo[4′,5′:4,5]benzo[1,2-d]thiazol-6-yl)-2-methoxyphenol] | > 77 | – |
| 19.5 | 0.82 | COc1ccc(-c2nc3cc4c(cc3s2)OCO4)cc1OC [Compound 11, 6-(3,4-Dimethoxyphenyl)-[1,3]dioxolo[4′,5′:4,5]benzo[1,2-d]thiazole] | – | – |

Source: PMC11990524, “Design and Synthesis of Novel 6-(Substituted phenyl)-[1,3]dioxolo[4′,5′:4,5]benzo[1,2-d]thiazole Compounds as Tyrosinase Inhibitors: In Vitro and In Vivo Insights” (Molecules, 2025)
